Test results taken from patent publication US20200207726A1, “INDOLINYL SULFONAMIDE AND RELATED COMPOUNDS FOR USE AS AGONISTS OF RORY AND THE TREATMENT OF DISEASE” (Lycera Corporation, priority 2017, published 2020).
One block for each molecule: values may come before it.

What was measured:
[1] = target: T1, RORγ-LBD (Homo sapiens, UniProt P51449); assay: RORγ-Ligand Binding Domain (LBD) TR-FRET Assay; format: biochemical; conditions: for TR-FRET Assay Max Response: upper plateau of 4-parameter fit, signal in absence of ursolic acid or test compound set as 100; for EC50: with 2 μM ursolic acid (RORγ antagonist), highest test concentration 10 μM
T1 construct: made in house; host or cells: SF9 cells, baculovirus expression system (lysate used)
T1 sequence (P51449 269-508 limits assumed): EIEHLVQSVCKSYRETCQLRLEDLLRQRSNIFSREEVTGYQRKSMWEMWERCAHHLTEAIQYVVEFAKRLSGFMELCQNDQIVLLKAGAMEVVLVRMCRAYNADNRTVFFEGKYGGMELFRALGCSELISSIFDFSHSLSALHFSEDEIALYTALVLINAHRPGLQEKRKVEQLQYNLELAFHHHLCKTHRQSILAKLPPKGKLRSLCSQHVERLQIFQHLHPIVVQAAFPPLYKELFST
Procedure: HIS-tagged RORγ-LBD protein was expressed in SF9 cells using a baculovirus expression system. The lysate was diluted in assay buffer (50 mM Tris pH 7.0, 50 mM KCl, 1 mM EDTA, 0.1 mM DTT, 0.01% BSA) to obtain RORγ-LBD final concentration of −3 nM in a 384-well assay plate (need to titrate for each batch of protein).
A stock of biotinylated-LXXLL peptide from coactivator SRC1 (Biotin-[…]) was prepared in assay buffer and added to each well (200 nM final concentration). A solution of Europium tagged anti-HIS antibody (0.6 nM final concentration) and APC-conjugated streptavidin (30 nM final concentration) were also added to each well. RORγ antagonist ursolic acid was also included at a final concentration of 2 μM. Compounds were diluted in DMSO and further diluted in assay buffer with a final DMSO concentration at 1%. The highest concentration of test compound analyzed was 10 μM.
The final assay mixture was incubated overnight at 4° C. or 2 hours at room temperature, and the fluorescence signal was measured on an Envision plate reader: (Excitation filter=340 nm; APC emission=665 nm; Europium emission=615 nm; dichroic mirror=D400/D630; delay time=100 μs, integration time=200 μs). 50% Effective concentration (EC50) values for test compounds were calculated from the quotient of the fluorescence signal at 665 nm divided by the fluorescence signal at 615 nm. The quotient of the fluorescence signals in the absence of ursolic acid or test compound is set as 100. Max Response is defined as the upper plateau in the signal as determined by line-fit using a 4-parameter logistic model in PRISM (GraphPad).

[2] = target: T2, Gal4-RORγ-LBD (Homo sapiens, UniProt P51449); assay: Gal4-RORγ Luciferase Reporter Assay in HEK-293T Cells; format: cell-based; conditions: for EC50: HEK-293 cells, with 2 μM ursolic acid, overnight incubation; for Gal4-RORγ Assay Max Response: upper plateau of 4-parameter fit, luciferase signal in absence of ursolic acid or test compound defined at 100
T2 construct: expressed in transfected cells; host or cells: HEK-293 cells, pcDNA3.1neo plasmid
T2 sequence (P51449 269-508 limits assumed): T1 sequence (P51449 269-508 limits assumed)
Procedure: In the following protocol, HEK-293 cells were transfected with a construct comprising the Gal4 DNA binding domain fused to the ligand binding domain of RORγ (Gal4-RORγ-LBD) in a pcDNA3.1neo plasmid, and also with a reporter construct comprising pGL4.31 Gal4-luciferase (Promega). Control cells were prepared similarly using empty pcDNA3.1neo and pGL4.31 vectors.
Trans-IT reagent (Mirus, 60 μL) at room temperature was added drop wise to OptiMEM (Invitrogen, 1.5 ml). This reagent mixture was mixed by inversion then incubated for 5 to 30 minutes at room temperature. It then was added to a solution of both expression vectors (5 μg each), mixed, and incubated at room temperature for about 20 minutes. HEK-293 cells were harvested from incubation flasks by removing the media, treating with TrypLE Express (Invitrogen), and incubating until the cells detached from the bottom of the flask (approximately 2-5 minutes). 10 Million cells were collected by centrifugation and re-suspended in 10 mL of Dulbecco's Modified Eagle Medium, High Glucose (DMEM, Invitrogen) containing 10% Fetal Bovine Serum and 100 IU each of penicillin and streptomycin. The re-suspended cells and the transfection mixture were added to a T75 flask, mixed and incubated overnight at 37° C. and 5% CO2.
The cells were harvested as described above, counted, and centrifuged to obtain the desired number of cells, then re-suspended in complete growth media at 0.75×10^6 cells/mL. The RORγ antagonist, ursolic acid, was added to the cells at a final concentration of 2 μM. Cells were plated at 20 μL of cell suspension/well (10,000-15,000 cells/well) in white tissue culture treated 384 well plates. Test compounds were dissolved at 10 mM in DMSO then diluted into complete growth medium to 5× the final intended test concentration. These drug stock solutions, 5 μL/well were added to the tissue culture plate. The final DMSO concentration was 0.2%. The plates were briefly centrifuged then incubated overnight at 37° C. and 5% CO2. To conduct the assay, the tissue culture plates were allowed to equilibrate to room temperature and One-Glo luciferase reagent (Promega, 25 μL/well) was added. The plates were briefly centrifuged then incubated at room temperature for 10 minutes. The luciferase intensity was read on an Envision plate reader (Perkin Elmer). RORγ activity was determined relative to controls and plotted as a function of test compound concentration using PRISM (GraphPad) to determine a 50% effective concentration (EC50). The luciferase signal in the absence of ursolic acid or test compound is defined at 100. The Max Response is the upper plateau in the signal as determined by line-fit using a 4-parameter logistic model in PRISM (GraphPad).

Structure (SMILES): O=S(=O)(c1cccc(C(F)(F)F)c1)c1c[nH]c2ccc(-c3cc(F)ccc3F)cc12 [Example 4, 5-(2,5-difluorophenyl)-3-((3-(trifluoromethyl)phenyl)sulfonyl)-1H-indole]
EC50 [2]: > 10000 nM | Gal4-RORγ Assay Max Response [2]: * (a value in the range of 25 to 90)

Structure (SMILES): COC(=O)CCC1Cc2ccc(-c3cc(F)ccc3F)cc2N1S(=O)(=O)c1cccc(C(F)(F)F)c1 (stereo not drawn) [Example 5, methyl 3-(6-(2,5-difluorophenyl)-1-((3-(trifluoromethyl)phenyl)sulfonyl)indolin-2-yl)propanoate]
TR-FRET Assay Max Response [1]: *** (a value in the range of greater than 150 to 200) | EC50 [1]: < 500 nM | EC50 [2]: < 500 nM | Gal4-RORγ Assay Max Response [2]: ** (a value in the range of greater than 90 to 150)

Structure (SMILES): O=C(O)CCc1cc2ccc(-c3cc(F)ccc3F)cc2n1S(=O)(=O)c1cccc(C(F)(F)F)c1 [Example 8, 3-(6-(2,5-difluorophenyl)-1-((3-(trifluoromethyl)phenyl)sulfonyl)-1H-indol-2-yl)propanoic acid]
TR-FRET Assay Max Response [1]: *** (a value in the range of greater than 150 to 200) | EC50 [1]: 500 to 5000 nM | EC50 [2]: 500 to 5000 nM | Gal4-RORγ Assay Max Response [2]: ** (a value in the range of greater than 90 to 150)

Continued, in another order:

EC50 [1]: < 500 nM | EC50 [2]: < 500 nM
Structure (SMILES): O=S(=O)(c1cccc(C(F)(F)F)c1)N1COc2ccc(-c3cc(F)ccc3F)cc21 [Example 1, 5-(2,5-difluorophenyl)-3-((3-(trifluoromethyl)phenyl)sulfonyl)-2,3-dihydrobenzo[d]oxazole]
TR-FRET Assay Max Response [1]: *** (a value in the range of greater than 150 to 200) | Gal4-RORγ Assay Max Response [2]: ** (a value in the range of greater than 90 to 150)

EC50 [1]: < 500 nM | EC50 [2]: < 500 nM
Structure (SMILES): CCOC(=O)CC1CN(S(=O)(=O)c2cccc(C(F)(F)F)c2)c2cc(-c3cc(F)ccc3F)ccc21 (stereo not drawn) [Example 2, ethyl 2-(6-(2,5-difluorophenyl)-1-((3-(trifluoromethyl)phenyl)sulfonyl)indolin-3-yl)acetate]
TR-FRET Assay Max Response [1]: *** (a value in the range of greater than 150 to 200) | Gal4-RORγ Assay Max Response [2]: ** (a value in the range of greater than 90 to 150)

EC50 [1]: < 500 nM | EC50 [2]: 5000 to 10000 nM
Structure (SMILES): O=C(O)CC1CN(S(=O)(=O)c2cccc(C(F)(F)F)c2)c2cc(-c3cc(F)ccc3F)ccc21 (stereo not drawn) [Example 3, 2-(6-(2,5-difluorophenyl)-1-((3-(trifluoromethyl)phenyl)sulfonyl)indolin-3-yl)acetic acid]
TR-FRET Assay Max Response [1]: ** (a value in the range of greater than 90 to 150) | Gal4-RORγ Assay Max Response [2]: ** (a value in the range of greater than 90 to 150)

EC50 [1]: < 500 nM | EC50 [2]: 500 to 5000 nM
Structure (SMILES): O=C(O)CCC1Cc2ccc(-c3cc(F)ccc3F)cc2N1S(=O)(=O)c1cccc(C(F)(F)F)c1 (stereo not drawn) [Example 6, 3-(6-(2,5-difluorophenyl)-1-((3-(trifluoromethyl)phenyl)sulfonyl)indolin-2-yl)propanoic acid]
TR-FRET Assay Max Response [1]: *** (a value in the range of greater than 150 to 200) | Gal4-RORγ Assay Max Response [2]: *** (a value in the range of greater than 150 to 200)

EC50 [1]: 500 to 5000 nM | EC50 [2]: 500 to 5000 nM | Gal4-RORγ Assay Max Response [2]: * (a value in the range of 25 to 90)
Structure (SMILES): COC(=O)CCc1cc2ccc(-c3cc(F)ccc3F)cc2n1S(=O)(=O)c1cccc(C(F)(F)F)c1 [Example 7, methyl 3-(6-(2,5-difluorophenyl)-1-((3-(trifluoromethyl)phenyl)sulfonyl)-1H-indol-2-yl)propanoate]
TR-FRET Assay Max Response [1]: *** (a value in the range of greater than 150 to 200)
